Test results: patent US20100305658A1 (priority 2004, published 2010)

Columns and labels:
[1] = test system: striatal dopamine efflux (dopamine oxidation current); test: STN stimulation-evoked striatal dopamine efflux, constant potential amperometry, effects of selective reuptake inhibitors; assay type: in vivo, rat; conditions: post-drug, 20 mg/kg systemic injection, STN stimulation 15 pulses, 50 Hz, 300 μA
[2] = test system: glutamate release in ferret thalamic slices (A1 lamina of the LGN); test: HFS-induced glutamate release in thalamic slices measured with a glutamate sensor; assay type: cell-based
GABAA receptors = test: Extracellular recording of spontaneous spindle waves in LGN slice with GABAA receptors blocked; assay type: cell-based; conditions: 20 μM in bath; ferret LGN slice; n=5 slices
Procedure: For the preparation of slices, 3-4 month old male or female ferrets (muftela putoriouf furo; Marshall Farms; North Rose, New York) were deeply anesthetized with sodium pentobarbital (30-40 mg/kg) and killed by decapitation. The forebrain was rapidly removed, and the hemispheres were separated with a midline incision. Four hundred micron thick slices were cut using a vibratome (Ted Pella, Inc.) in the sagittal plane. During preparation of slices, the tissue was placed in a solution (5° C.) in which NaCl was replaced with sucrose while maintaining an osmolarity of 307 mOsm to increase tissue viability. […]
Intracellular recording electrodes were formed on a Sutter Instruments P-2000 laser micropipette puller from medium-walled glass (WPI, 1B100F). […] The data was analyzed using Chart (eDaq) on a Pentium style computer and figures were drawn using Core1DRAW (Corel).
To test the functional effects of HFS-mediated glutamate release, simultaneous intracellular and extracellular recordings were made in the ferret lateral geniculate nucleus (LGN) in vitro slice preparation, which generates spontaneous spindle waves (FIG. 14; n=21). Spindle activity was recorded from a population of neurons (extracellular electrode), and the electrophysiological activity associated with the spindle activity was recorded from single neurons within that population. […]

CN1Cc2c(N)cccc2C(c2ccccc2)C1 (stereo not shown) [nomifensine]
recovery of dopamine efflux to prestimulation baseline levels (total duration) [1]: 2035 ± 132 ms | STN electrical stimulation-evoked dopamine oxidation current (amplitude) ([1]; anaesthetized rat striatum): 765±38 pA

NC1=N[C@H](O)[C@H]2[C@H]3O[C@]4(O)O[C@@H]([C@@H](O)[C@@]2(N1)[C@@H]4O)[C@]3(O)CO [tetrodotoxin]
block of glutamate release induced by HFS [2]: failed to block

picrotoxin
effect on spontaneous spindle waves (GABAA receptors): transformed into events that resemble absence-seizure-like activity
